Key:
Anopheles albimanus = assay: Olfactometer attraction test of compounds and compositions; assay type: in vivo;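 further: olfactometer with a treatment port and a matching control port using identical delivery device and conditions, both opened together, three tests per battery, each run in its own cage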
Aedes aegypti = assay: Olfactometer attraction test, treatment port vs control port, approximately 75 female mosquitoes; assay type: in vivo; settings: for Δ [(Resp with LA) − Resp] (%): difference between response with L-lactic acid and response alone; for Response with Ace (%): base compound together with acetone; for Δ [(Resp with Ace) − Resp] (%): difference between response with acetone and response alone
Method: The tests were conducted in an olfactometer (55 ft^3/min airflow, 80° F., 60% R.H.) as described by Posey, J. Med. Entomol., 35, 330-334 (1998); and LA is lactic acid. Mosquitoes were allowed to settle at least one hour prior to testing. The olfactometer was cleaned after each battery of tests. Each battery consisted of three tests, conducted at 08:30, 11:00 and 13:00 hours local time. Each of the three tests was conducted in a separate cage. The control consisted of identical sample delivery devices and conditions compared to that of the treatment side. Both the treatment and control ports were opened and closed simultaneously when inserting a new treatment/control.

[1] = compound 500 μL together with L-lactic acid
[2] = compound alone, high dose of 500 μL
[3] = base compound alone (mode of action similar to lactic acid)
[4] = single compound, dose 500 (μL), 60 mL glass petri dish, Aedes aegypti attraction
[5] = no Base, Activator1 dose 500, 60 mL glass petri dish

O=C(O)CC(O)C(=O)O (racemic) [DL-Malic Acid]
% caught (Anopheles albimanus; single substance, Crys dish (crystalline solid)): 0.0%

CC(Cl)(Cl)Cl [1,1,1-Trichloroethane]
% caught (Anopheles albimanus; single treatment, 500 μL): 61.0%

ClCC(Cl)Cl [1,1,2-Trichloroethane]
% caught (Anopheles albimanus; single treatment, 500 μL): 64.4%

O=C(CCl)C(Cl)Cl [1,1,3-Trichloroacetone]
% caught (Anopheles albimanus; single treatment, 500 μL): 5.6%

CN1CCNCC1 [1-Methylpiperazine]
% caught (Anopheles albimanus; single treatment, 500 μL): 1.3%

Cn1cccc1 [1-Methylpyrrole]
% caught (Anopheles albimanus; single treatment, 500 μL): 10.7%

CCCCCCCCCO [1-Nonanol]
% caught (Anopheles albimanus; single treatment, 500 μL): 4.1%

C=CC(O)CCCCC (stereo not shown) [1-Octen-3-ol]
% caught (Anopheles albimanus; single treatment, 500 μL): 24.0%

CCCS [1-Propanethiol]
% caught (Anopheles albimanus; single treatment, 500 μL): 24.0%

C=CCCCCCCCCCCCC [1-Tetradecene]
% caught (Anopheles albimanus; single treatment, 500 μL): 1.4%

C=CC(O)CCCC (stereo not shown) [1-hepten-3-ol]
Response with L-LA (%) (Aedes aegypti; [1]): 15%
Response (%) (Aedes aegypti; [2]): 10%
attraction of various mixtures and items (Aedes aegypti; default LA 200 μg, other chemicals 500 μL unless specified, containers as in the label): 7%
Δ [(Resp with LA) − Resp] (%) (Aedes aegypti): 5%

C=CCCCCC [1-heptene]
Response (%) (Aedes aegypti; [3]): 4%
Response with Ace (%) (Aedes aegypti): 34%
Response with L-LA (%) (Aedes aegypti; [1]): 19%
Response (%) (Aedes aegypti; [2]): 5%
Δ [(Resp with LA) − Resp] (%) (Aedes aegypti): 14%
Δ [(Resp with Ace) − Resp] (%) (Aedes aegypti): 30%
Response Avg % (Aedes aegypti; [4]): 5.0%

C=CCCCCCCC [1-nonene]
Response (%) (Aedes aegypti; [3]): 6%
Response with Ace (%) (Aedes aegypti): 54%
Response with L-LA (%) (Aedes aegypti; [1]): 8%
Response (%) (Aedes aegypti; [2]): 6%
Δ [(Resp with LA) − Resp] (%) (Aedes aegypti): 2%
Δ [(Resp with Ace) − Resp] (%) (Aedes aegypti): 48%

C=CCCCCCC [1-octene]
Response (%) (Aedes aegypti; [3]): 38%
Response with Ace (%) (Aedes aegypti): 63%
Response with L-LA (%) (Aedes aegypti; [1]): 42%
Response (%) (Aedes aegypti; [2]): 38%
Δ [(Resp with LA) − Resp] (%) (Aedes aegypti): 4%
Δ [(Resp with Ace) − Resp] (%) (Aedes aegypti): 25%

C=CC(=O)CC [1-penten-3-one]
Response with L-LA (%) (Aedes aegypti; [1]): 23%
Response (%) (Aedes aegypti; [2]): 19%
Δ [(Resp with LA) − Resp] (%) (Aedes aegypti): 4%
% caught (Anopheles albimanus; single treatment, 500 μL): 29.3%

CCCC(=O)C(C)=O [2,3-Hexanedione]
% caught (Anopheles albimanus; single treatment, 500 μL): 2.7%

CC(=O)C(C)=O [2,3-butanedione]
Response with L-LA (%) (Aedes aegypti; [1]): 29%
Response (%) (Aedes aegypti; [2]): 37%
Δ [(Resp with LA) − Resp] (%) (Aedes aegypti): −8%
% caught (Anopheles albimanus; single treatment, 500 μL): 1.4%

CC(C)CC(=O)CC(C)C [2,6-Dimethyl-4-Heptanone]
% caught (Anopheles albimanus; single treatment, 500 μL): 18.7%

Nc1ccccn1 [2-Aminopyridine]
% caught (Anopheles albimanus; single treatment, 500 μL): 0.0%

CCCCCCCCCCC(C)=O [2-Dodecanone]
% caught (Anopheles albimanus; single treatment, 500 μL): 1.4%

CCCCC(=O)C(C)C [2-Methyl-3-Heptanone]
% caught (Anopheles albimanus; single treatment, 500 μL): 34.7%

CCCCCC(=O)C(C)C [2-Methyl-3-Octanone]
% caught (Anopheles albimanus; single treatment, 500 μL): 30.1%

CC(C)S [2-Thiopropane]
% caught (Anopheles albimanus; single treatment, 500 μL): 20.5%

CCCCCCCCCCCC(C)=O [2-Tridecanone]
% caught (Anopheles albimanus; single treatment, 500 μL): 1.3%

CCCCCCCCCC(C)=O [2-Undecanone]
% caught (Anopheles albimanus; single treatment, 500 μL): 4.2%

CCCCCCCC(=O)CC [3-Decanone]
% caught (Anopheles albimanus; single treatment, 500 μL): 9.3%

CCCCCC(=O)CC [3-Octanone]
% caught (Anopheles albimanus; single treatment, 500 μL): 25.0%

CC=CC(C)=O [3-penten-2-one]
Response with L-LA (%) (Aedes aegypti; [1]): 49%
Response (%) (Aedes aegypti; [2]): 11%
Δ [(Resp with LA) − Resp] (%) (Aedes aegypti): 38%

CCCCCCC(=O)CCC [4-Decanone]
% caught (Anopheles albimanus; single treatment, 500 μL): 7.8%

CC=CC(=O)CC [4-Hexen-3-one]
% caught (Anopheles albimanus; single treatment, 500 μL): 79.2%

CC(=O)CCC(C)C [5-Methyl-2-Hexanone]
% caught (Anopheles albimanus; single treatment, 500 μL): 11.7%

CC(=O)C=CC=C(C)C [6-Methyl-3,5-Heptadien-2-one]
% caught (Anopheles albimanus; single treatment, 500 μL): 18.7%

CCCCCC(=O)CCCCC [6-Undecanone]
% caught (Anopheles albimanus; single treatment, 500 μL): 3.9%

CC(=O)O [Acetic Acid]
% caught (Anopheles albimanus; single treatment, 500 μL): 2.7%

CC(=O)CCC(C)=O [Acetonylacetone]
% caught (Anopheles albimanus; single treatment, 500 μL): 0.0%

C=CCSSCC=C [Allyl Disulfide]
% caught (Anopheles albimanus; single treatment, 500 μL): 0.0%

C[C@@H](O)C(=O)O [D-lactic acid]
Response (%) (Aedes aegypti; [3]): 8%
Response with Ace (%) (Aedes aegypti): 82%
Δ [(Resp with Ace) − Resp] (%) (Aedes aegypti): 74%

C[S+](C)[O-] [Dimethylsulfoxide]
Response Avg % (Aedes aegypti; [4]): 3.0%

CCS [Ethanethiol]
% caught (Anopheles albimanus; single treatment, 500 μL): 40.0%

CCOC(C)=O [Ethyl Acetate]
% caught (Anopheles albimanus; single treatment, 500 μL): 28.4%

C=O [Formaldehyde]
Response Avg % (Aedes aegypti; [4]): 1.0%

O=CO [Formic Acid]
% caught (Anopheles albimanus; in vivo): 0.0%

OCc1ccco1 [Furfuryl Alcohol]
% caught (Anopheles albimanus; single treatment, 500 μL): 46.7%

O=CC(=O)O [Glyoxylic Acid]
% caught (Anopheles albimanus; single treatment, 500 μL): 1.3%

c1ccc2[nH]ccc2c1 [Indole]
% caught (Anopheles albimanus; single treatment, 500 μL): 1.3%

CC(C)C=O [Isobutanal]
Response Avg % (Aedes aegypti; [5]): 13.0%

CC1=CC(=O)CC(C)(C)C1 [Isophorone]
% caught (Anopheles albimanus; single treatment, 500 μL): 13.3%

CCCCCCCCCCCC(=O)O [Laurie Acid]
% caught (Anopheles albimanus; single treatment, 500 μL): 1.3%

CO [MeOH]
Response Avg % (Aedes aegypti; [5]): 10.0%

CC(=O)C=C(C)C [Mesityl Oxide]
% caught (Anopheles albimanus; single treatment, 500 μL): 28.4%

CCCC(=O)OC [Methylbutyrate]
% caught (Anopheles albimanus; single treatment, 500 μL): 55.8%

CCCCC [Pentane]
% caught (Anopheles albimanus; single treatment, 500 μL): 2.7%

CC(C)=CC(=O)C=C(C)C [Phorone]
% caught (Anopheles albimanus; single treatment, 500 μL): 50.6%

c1cnccn1 [Pyrazine]
% caught (Anopheles albimanus; single treatment, 500 μL): 29.3%

ClC(Cl)=C(Cl)Cl [Tetrachloroethylene]
% caught (Anopheles albimanus; single treatment, 500 μL): 17.3%

c1ccsc1 [Thiophene]
% caught (Anopheles albimanus; single treatment, 500 μL): 68.0%

N#CC(Cl)(Cl)Cl [Trichloroacetonitrile]
% caught (Anopheles albimanus; single treatment, 500 μL): 65.3%

ClC=C(Cl)Cl [Trichloroethylene]
% caught (Anopheles albimanus; single treatment, 500 μL): 57.9%

CC=O [acetaldehyde]
Response with L-LA (%) (Aedes aegypti; [1]): 29%
Response (%) (Aedes aegypti; [2]): 8%
Δ [(Resp with LA) − Resp] (%) (Aedes aegypti): 21%

CC#N [acetonitrile]
Response with L-LA (%) (Aedes aegypti; [1]): 81%
Response (%) (Aedes aegypti; [2]): 27%
Δ [(Resp with LA) − Resp] (%) (Aedes aegypti): 54%

BrC(Br)Br [bromoform]
Response with L-LA (%) (Aedes aegypti; [1]): 64%
Response (%) (Aedes aegypti; [2]): 27%
Δ [(Resp with LA) − Resp] (%) (Aedes aegypti): 37%

O=C=O [carbon dioxide, reference compound]
Response Avg % (Aedes aegypti; CO2 alone, dose 0.5, Aedes aegypti attraction): 4.0%
Response with L-LA (%) (Aedes aegypti; carbon dioxide 5 ml/min with L-lactic acid): 68%

CCOCC [diethyl ether]
Response with L-LA (%) (Aedes aegypti; [1]): 56%
Response (%) (Aedes aegypti; [2]): 25%
Δ [(Resp with LA) − Resp] (%) (Aedes aegypti): 31%

C[S+](C)[O-] [dimethyl sulfoxide]
Response with L-LA (%) (Aedes aegypti; [1]): 30%
Response (%) (Aedes aegypti; [2]): 3%
Δ [(Resp with LA) − Resp] (%) (Aedes aegypti): 27%

CCO [ethanol]
Response with L-LA (%) (Aedes aegypti; [1]): 57%
Response (%) (Aedes aegypti; [2]): 9%
Δ [(Resp with LA) − Resp] (%) (Aedes aegypti): 48%

C=O [formaldehyde (37%), formaldehyde]
Response with L-LA (%) (Aedes aegypti; [1]): 5%
Response (%) (Aedes aegypti; [2]): 1%
Δ [(Resp with LA) − Resp] (%) (Aedes aegypti): 4%

O=C(O)CO [glycolic acid]
Response (%) (Aedes aegypti; [3]): 17%
Δ [(Resp with Ace) − Resp] (%) (Aedes aegypti): 64%

CC(C)C=O [isobutyraldehyde]
Response with L-LA (%) (Aedes aegypti; [1]): 32%
Response (%) (Aedes aegypti; [2]): 13%
Δ [(Resp with LA) − Resp] (%) (Aedes aegypti): 19%

CO [methanol]
Response with L-LA (%) (Aedes aegypti; [1]): 66%
Response (%) (Aedes aegypti; [2]): 10%
Δ [(Resp with LA) − Resp] (%) (Aedes aegypti): 56%

CCCCCCCCC=O [nonanal]
Δ [(Resp with LA) − Resp] (%) (Aedes aegypti): 10%

CCC(=O)O [propanoic acid]
Response with L-LA (%) (Aedes aegypti; [1]): 1%
Response (%) (Aedes aegypti; [2]): 3%
Δ [(Resp with LA) − Resp] (%) (Aedes aegypti): −2%
Response Avg % (Aedes aegypti; [4]): 3.0%

CCCCC/C=C/C(C)=O [t-3-Nonen-2-one]
% caught (Anopheles albimanus; single treatment, 500 μL): 10.7%

O=C(O)C(O)C(O)C(=O)O (stereo not shown) [tartaric acid]
Response (%) (Aedes aegypti; [3]): 9%
Response with Ace (%) (Aedes aegypti): 67%
Δ [(Resp with Ace) − Resp] (%) (Aedes aegypti): 58%

Cc1ccccc1 [toluene]
Response with L-LA (%) (Aedes aegypti; [1]): 59%
Response (%) (Aedes aegypti; [2]): 7%
Δ [(Resp with LA) − Resp] (%) (Aedes aegypti): 52%

Source: US7771713B2, “Chemical composition that attract arthropods” (priority 1999, dated 2010)
